How the values were obtained:
BRD4 = BRD4 (Homo sapiens (Human), UniProt O60885); assay: TR-FRET in-vitro binding assay for BRD4; conditions: 45 nM His-Brd4(44-477), acetyl-histone H4 (AcK 5, 8, 12, 16) peptide
Summary of the method: (§1)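 Binding is detected by TR-FRET following incubation for 35 minutes at 30° C.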

BRD2 = BRD2 (Homo sapiens (Human), UniProt P25440); assay: TR-FRET in-vitro binding assay for BRD2; conditions: 45 nM His-Brd2(60-472), acetyl-histone H4 (AcK 5, 8, 12, 16) peptide
Description: TR-FRET In-Vitro Binding Assays for BRD2, BRD3, and BRD4: All assays were performed in 384-well microtiter plates. […] Liquid handling and incubation steps were done on an Innovadyne Nanodrop Express equipped with a robotic arm (Thermo CatX, Perkin Elmer/Caliper Twister II) and an incubator (Liconic STX40, Thermo Cytomat 2C450). The assay plates were prepared by addition of 50 nl per well of compound solution in 90% DMSO HummingBird nanodispenser (Zinsser Analytic). […] Reactions were incubated at 30° C. for 35 minutes. […] After 35 minutes incubation at 30° C., plates were measured in a Perkin Elmer EnVision multilabel reader. […] The stock solutions were stored at […] if not used immediately. For the test procedure the vials were defrosted and identified by a scanner whereby a working sheet was generated that guided the subsequent working steps. Compound dilutions were made in 96 well plates. This format enabled the assay of maximally […] at 8 concentrations (single points) including 4 reference compounds, if desired (known BET inhibitors from the prior art, for this and other assays of the type disclosed herein). The dilution protocol included the production of “pre-dilution plates”, “master plates” and “assay plates”. Polypropylene 96-well plates were used as pre-dilution plates. […] All dilution steps were done on a HamiltonSTAR robot. […] Identical “assay plates” were then prepared by pipetting 50 nL each of compound dilutions of the “master plates” into 384-well “assay plates” by means of a HummingBird 384-channel dispenser. These plates were used directly for the assay which was performed in a total volume of 13.55 μL.

K-562 = assay: Cell growth inhibition assay (CellTiter-Glo), K-562; type: cell-based, human; conditions: K-562 cells, 4 days; for GI50: Homo sapiens, K562, 96 h, half-maximal growth inhibition; for K-562 TGI: total growth inhibition
Summary of the method: (§2)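 Seed cells in their own media; add compound as 3-fold dilutions from 10 μM (0.1% DMSO final). Incubate 4 days at 37 °C, 5% CO2, then add CTG and read luminescence. Subtract no-cell background, correct to a day 0 plate, and fit IC50 and TGI.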

THP-1 = assay: Cell growth inhibition assay (CellTiter-Glo), THP-1; type: cell-based, human; conditions: THP-1 cells, 4 days; for GI50: Homo sapiens, 96 h, half-maximal growth inhibition; for THP-1 TGI: total growth inhibition
Summary of the method: as §2

BRD3 = BRD3 (Homo sapiens (Human), UniProt Q15059); assay: TR-FRET in-vitro binding assay for BRD3; conditions: 45 nM His-Brd3(20-477), acetyl-histone H4 (AcK 5, 8, 12, 16) peptide
Chain of BRD3 (Q15059 20-477): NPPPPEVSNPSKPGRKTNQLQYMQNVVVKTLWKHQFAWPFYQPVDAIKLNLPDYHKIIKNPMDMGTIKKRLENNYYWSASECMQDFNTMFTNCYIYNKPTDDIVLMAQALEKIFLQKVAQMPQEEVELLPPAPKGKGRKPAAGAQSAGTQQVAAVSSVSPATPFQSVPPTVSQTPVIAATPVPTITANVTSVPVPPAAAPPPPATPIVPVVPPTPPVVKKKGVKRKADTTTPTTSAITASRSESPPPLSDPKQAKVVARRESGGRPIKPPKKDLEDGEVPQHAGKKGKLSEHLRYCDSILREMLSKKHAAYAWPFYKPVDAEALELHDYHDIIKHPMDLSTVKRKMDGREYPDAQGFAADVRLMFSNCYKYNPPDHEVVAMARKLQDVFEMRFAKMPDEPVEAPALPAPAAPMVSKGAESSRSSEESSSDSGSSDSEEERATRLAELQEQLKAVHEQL
Summary of the method: as §1

MV-4-11 = assay: Cell growth inhibition assay (CellTiter-Glo), MV-4-11; type: cell-based, human; conditions: MV-4-11 cells, 4 days; for GI50: Homo sapiens, MV4-11, 96 h, half-maximal growth inhibition; for MV-4-11 TGI: total growth inhibition
Summary of the method: as §2

CREBBP = CREBBP (Homo sapiens (Human), UniProt Q92793); assay: AlphaScreen in-vitro binding assay for CREBBP; conditions: 324 nM His-CREBBP (1081-1197), acetyl-histone H4 (AcK 5, 8, 12) peptide
Chain of CREBBP (Q92793 1081-1197): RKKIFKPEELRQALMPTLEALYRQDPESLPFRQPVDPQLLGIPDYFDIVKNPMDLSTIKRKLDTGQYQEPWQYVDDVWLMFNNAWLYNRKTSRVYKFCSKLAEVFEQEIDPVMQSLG
Summary of the method: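 IC50 values were derived by non-linear regression of percent inhibition across 8 compound concentrations. Protein was His-tagged CREBBP bromodomain (1081-1197), peptide acetyl-histone H4 (AcK 5, 8, 12), in HEPES pH 7.5 buffer. Read-out was AlphaScreen with Ni-chelate acceptor and streptavidin donor beads, 35 min at 30° C then 60 min at RT.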

Chain of BRD2 (P25440 60-472): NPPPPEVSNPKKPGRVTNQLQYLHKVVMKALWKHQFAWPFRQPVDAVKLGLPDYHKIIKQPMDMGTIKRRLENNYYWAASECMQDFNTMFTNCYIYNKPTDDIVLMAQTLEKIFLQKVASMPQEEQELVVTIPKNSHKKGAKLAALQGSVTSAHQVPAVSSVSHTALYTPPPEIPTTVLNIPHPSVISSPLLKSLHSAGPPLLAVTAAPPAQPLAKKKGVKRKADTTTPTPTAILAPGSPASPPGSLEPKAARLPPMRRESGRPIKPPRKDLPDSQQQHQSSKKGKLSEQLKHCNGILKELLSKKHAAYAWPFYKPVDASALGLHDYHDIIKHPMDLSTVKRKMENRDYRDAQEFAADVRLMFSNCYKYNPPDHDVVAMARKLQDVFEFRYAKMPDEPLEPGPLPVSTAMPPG

| IC50 (BRD4) [µM] | IC50 (BRD2) [µM] | GI50 (K-562) [µM] | GI50 (THP-1) [µM] | IC50 (BRD3) [µM] | GI50 (MV-4-11) [µM] | IC50 (CREBBP) [µM] | Structure (SMILES) | K-562 TGI (K-562) [µM] | THP-1 TGI (THP-1) [µM] | MV-4-11 TGI (MV-4-11) [µM] |
| --- | --- | --- | --- | --- | --- | --- | --- | --- | --- | --- |
| 0.059 | 0.05 | 0.2 | 0.076 | 0.054 | 0.0376 |  | Cc1cc(N2C(=O)c3cc(-c4cnc(N(C)C)nc4)n(C)c3C2c2ccc(Cl)cc2)cn(C)c1=O (centres unmarked) [Example 57, 6-(4-chlorophenyl)-5-(1,5-dimethyl-6-oxo-1,6-dihydropyridin-3-yl)-2-(2-(dimethylamino)pyrimidin-5-yl)-1-methyl-5,6-dihydropyrrolo[3,4-b]pyrrol-4(1H)-one] | >10 | 0.126 | 0.0598 |
| 0.042 | 0.04 | 0.133 | 0.0332 | 0.034 | 0.0181 |  | COc1ccc(-c2cc3c(n2C)C(c2ccc(Cl)cc2)N(c2cc(C)c(=O)n(C)c2)C3=O)cn1 (centres unmarked) [Example 58, 6-(4-chlorophenyl)-5-(1,5-dimethyl-6-oxo-1,6-dihydropyridin-3-yl)-2-(6-methoxypyridin-3-yl)-1-methyl-5,6-dihydropyrrolo[3,4-b]pyrrol-4(1H)-one] | >10 | 0.0704 | 0.0338 |
| 0.083 | 0.076 | 0.386 | 0.169 | 0.075 | 0.0923 |  | Cc1cc(N2C(=O)c3cc(-c4ccnc(C(F)(F)F)n4)n(C)c3C2c2ccc(Cl)cc2)cn(C)c1=O (centres unmarked) [Example 49, 6-(4-chlorophenyl)-5-(1,5-dimethyl-6-oxo-1,6-dihydropyridin-3-yl)-1-methyl-2-(2-(trifluoromethyl)pyrimidin-4-yl)-5,6-dihydropyrrolo[3,4-b]pyrrol-4(1H)-one] | >10 | 0.301 | 0.134 |
| 0.695 | 0.74 |  |  | 0.56 |  |  | COc1cccc(C2c3c(ccn3C)C(=O)N2c2cc(C)c(=O)n(C)c2)c1 (centres unmarked) [Example 85, 5-(1,5-dimethyl-6-oxo-1,6-dihydropyridin-3-yl)-6-(3-methoxyphenyl)-1-methyl-5,6-dihydropyrrolo[3,4-b]pyrrol-4(1H)-one] |  |  |  |
| 0.033 | 0.032 | 0.449 | 0.104 | 0.038 | 0.0881 |  | Cc1cc(N2C(=O)c3cc(-c4cccc(N(C)C)n4)n(C)c3C2c2ccc(Cl)cc2)cn(C)c1=O (centres unmarked) [Example 51, 6-(4-chlorophenyl)-5-(1,5-dimethyl-6-oxo-1,6-dihydropyridin-3-yl)-2-(6-(dimethylamino)pyridin-2-yl)-1-methyl-5,6-dihydropyrrolo[3,4-b]pyrrol-4(1H)-one] | >10 | 0.165 | 0.116 |
| 0.017 | 0.037 | 0.108 | 0.0344 | 0.021 | 0.0225 |  | COc1ncccc1-c1cc2c([nH]1)C(c1ccc(Cl)cc1)N(c1cc(C)c3nnc(C)n3c1)C2=O (centres unmarked) [Example 27, 6-(4-chlorophenyl)-5-(3,8-dimethyl-[1,2,4]triazolo[4,3-a]pyridin-6-yl)-2-(2-methoxypyridin-3-yl)-5,6-dihydropyrrolo[3,4-b]pyrrol-4(1H)-one] | >10 | 0.088 | 0.0377 |
| 0.012 | 0.013 | 0.00568 | 0.00116 | 0.012 | 0.000522 |  | Cc1cc(N2C(=O)c3c(C4CC4)cn(C4CN(C)C4)c3C2c2ccc(Cl)cc2)nc2c1nnn2C (centres unmarked) [Example 106, 6-(4-chlorophenyl)-3-cyclopropyl-5-(3,7-dimethyl-3H-[1,2,3]triazolo[4,5-b]pyridin-5-yl)-1-(1-methylazetidin-3-yl)-5,6-dihydropyrrolo[3,4-b]pyrrol-4(1H)-one] | >10 | 0.003335 | 0.00223 |
| 0.89 | 0.85 | 2.87 | 0.68 | 0.69 | 0.655 |  | COc1ccc(C2c3c(ccn3C)C(=O)N2c2cc(Cl)c(=O)n(C)c2)cc1 (centres unmarked) [Example 92, 5-(5-chloro-1-methyl-6-oxo-1,6-dihydropyridin-3-yl)-6-(4-methoxyphenyl)-1-methyl-5,6-dihydropyrrolo[3,4-b]pyrrol-4(1H)-one] | >10 | 2.405 | 1.495 |
| 0.04 | 0.041 |  |  | 0.039 |  |  | COc1ncc(-c2cc3c(n2C)C(c2ccc(Cl)cc2)N(c2cc(C)c(=O)n(C)c2)C3=O)c(OC)n1 (centres unmarked) [Example 53, 6-(4-chlorophenyl)-2-(2,4-dimethoxypyrimidin-5-yl)-5-(1,5-dimethyl-6-oxo-1,6-dihydropyridin-3-yl)-1-methyl-5,6-dihydropyrrolo[3,4-b]pyrrol-4(1H)-one] |  |  |  |
|  | 0.83 | 1.72 | 0.466 | 0.667 | 0.371 |  | COc1cccc(C2c3c(ccn3C)C(=O)N2c2cc(Cl)c(=O)n(C)c2)c1 (centres unmarked) [Example 91, 5-(5-chloro-1-methyl-6-oxo-1,6-dihydropyridin-3-yl)-6-(3-methoxyphenyl)-1-methyl-5,6-dihydropyrrolo[3,4-b]pyrrol-4(1H)-one] | >10 | 1.0025 | 0.6415 |
| 0.014 |  | 1.49 | 0.184 | 0.017 | 0.124 | 13.7 | CC(=O)N1CC(c2cn(C)c3c2C(=O)N(c2cc(C)c4nnc(C)n4c2)C3c2ccc(Cl)cc2)C1 (centres unmarked) [Example 117, 3-(1-acetylazetidin-3-yl)-6-(4-chlorophenyl)-5-(3,8-dimethyl-[1,2,4]triazolo[4,3-a]pyridin-6-yl)-1-methyl-5,6-dihydropyrrolo[3,4-b]pyrrol-4(1H)-one] | >10 | 0.354 | 0.2175 |
| < 0.011 |  | 0.0373 | 0.00557 | 0.012 | 0.00495 | 6.7 | CNC(=O)c1cn(C)c2c1C(=O)N(c1cc(C)c3nnn(C)c3c1)C2c1ccc(Cl)cc1 (centres unmarked) [Example 98, 6-(4-chlorophenyl)-5-(1,4-dimethyl-1H-benzo[d][1,2,3]triazol-6-yl)-N,1-dimethyl-4-oxo-1,4,5,6-tetrahydropyrrolo[3,4-b]pyrrole-3-carboxamide] | >8.2 | 0.01597 | 0.01253 |
| 0.12 |  | 0.409 | 0.0393 | 0.064 | 0.0194 | 17.3 | Cc1cc(N2C(=O)c3c(C(=O)NCCN(C)C)cn(C)c3C2c2ccc(Cl)cc2)cc2c1nnn2C (centres unmarked) [Example 112, 6-(4-chlorophenyl)-5-(1,4-dimethyl-1H-benzo[d][1,2,3]triazol-6-yl)-N-(2-(dimethylamino)ethyl)-1-methyl-4-oxo-1,4,5,6-tetrahydropyrrolo[3,4-b]pyrrole-3-carboxamide] | >10 | 0.09595 | 0.03475 |
